The source made the active and inactive calls. The rule behind the calls is not given here.
Columns and labels:
DOHH-2 = assay: Antiproliferative activity against human DOHH-2 cells assessed as growth inhibition at 0.2 uM measured after 72 hrs by MTT assay; format: functional; settings: read-out: GI
HCT-116 [1] = assay: Antiproliferative activity against human HCT-116 cells assessed as growth inhibition at 0.2 uM measured after 72 hrs by MTT assay; format: functional; settings: read-out: GI
THP-1 [2] = assay: Antiinflammatory activity against LPS-stimulated human THP-1 cells assessed inhibition of IL-6 release at 40 uM measured by ELISA; format: functional, cell-based
[3] = Selectivity ratio of IC50 for inhibition of 20S proteasome beta 5c subunit (unknown origin) to IC50 for inhibition of 20S proteasome subunit beta-5i
Pfeiffer = assay: Antiproliferative activity against human Pfeiffer cells assessed as growth inhibition at 0.2 uM measured after 72 hrs by MTT assay; format: functional; settings: read-out: GI
HT-29 = assay: Antiproliferative activity against human HT-29 cells assessed as growth inhibition at 0.2 uM measured after 72 hrs by MTT assay; format: functional; settings: read-out: GI
THP-1 [4] = assay: Antiinflammatory activity against LPS-stimulated human THP-1 cells assessed inhibition of TNF-alpha release at 40 uM measured by ELISA; format: functional, cell-based
MCF7 = assay: Antiproliferative activity against human MCF7 cells assessed as growth inhibition at 0.2 uM measured after 72 hrs by MTT assay; format: functional; settings: read-out: GI
[5] = biological target: T1, Proteasome subunit beta type-8 (Homo sapiens, UniProt P28062); assay: Inhibition of 20S proteasome subunit beta-5i (unknown origin) using Ac-ANW-AMC as substrate and measured after 30 mins
T1 sequence (P28062 whole entry): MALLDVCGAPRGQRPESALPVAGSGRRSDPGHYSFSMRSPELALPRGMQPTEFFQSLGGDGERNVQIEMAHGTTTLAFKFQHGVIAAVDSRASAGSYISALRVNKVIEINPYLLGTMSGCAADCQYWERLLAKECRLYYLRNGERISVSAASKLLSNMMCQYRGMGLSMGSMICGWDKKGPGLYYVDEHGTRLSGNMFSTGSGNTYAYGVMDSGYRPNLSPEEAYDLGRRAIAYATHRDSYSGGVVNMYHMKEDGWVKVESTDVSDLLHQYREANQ

HCT-116 [6] = assay: Antiproliferative activity against human HCT-116 cells assessed as growth inhibition measured after 72 hrs by CCK-8 assay; format: functional, cell-based; settings: HCT-116, 72 h
[7] = biological target: T2, Proteasome subunit beta type-9 (Homo sapiens, UniProt P28065); assay: Inhibition of 20S proteasome subunit beta-1i (unknown origin) using Ac-PAL-AMC as substrate and measured after 30 mins
T2 sequence (P28065 whole entry): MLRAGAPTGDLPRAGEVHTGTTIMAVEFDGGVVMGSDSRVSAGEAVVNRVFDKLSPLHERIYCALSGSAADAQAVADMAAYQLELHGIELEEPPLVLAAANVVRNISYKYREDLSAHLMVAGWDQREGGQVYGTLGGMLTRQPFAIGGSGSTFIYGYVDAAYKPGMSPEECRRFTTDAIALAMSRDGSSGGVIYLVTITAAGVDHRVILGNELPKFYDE

[8] = biological target: T3, Proteasome subunit beta type-10 (Homo sapiens, UniProt P40306); assay: Inhibition of 20S proteasome subunit beta-2i (unknown origin) using Ac-KQL-AMC as substrate and measured after 30 mins
T3 sequence (P40306 whole entry): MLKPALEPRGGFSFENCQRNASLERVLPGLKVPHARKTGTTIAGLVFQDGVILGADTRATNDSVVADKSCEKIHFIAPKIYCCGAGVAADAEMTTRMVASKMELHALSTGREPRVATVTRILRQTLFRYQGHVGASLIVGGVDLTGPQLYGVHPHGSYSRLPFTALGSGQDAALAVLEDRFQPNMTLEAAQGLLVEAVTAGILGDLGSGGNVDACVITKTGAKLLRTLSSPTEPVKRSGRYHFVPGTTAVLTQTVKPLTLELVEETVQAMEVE

[9] = biological target: T4, Proteasome Macropain subunit MB1 (Homo sapiens, UniProt P28074); assay: Inhibition of 20S proteasome subunit beta-5c (unknown origin) using Ac-WLA-AMC as substrate and measured after 30 mins
T4 sequence (P28074 whole entry): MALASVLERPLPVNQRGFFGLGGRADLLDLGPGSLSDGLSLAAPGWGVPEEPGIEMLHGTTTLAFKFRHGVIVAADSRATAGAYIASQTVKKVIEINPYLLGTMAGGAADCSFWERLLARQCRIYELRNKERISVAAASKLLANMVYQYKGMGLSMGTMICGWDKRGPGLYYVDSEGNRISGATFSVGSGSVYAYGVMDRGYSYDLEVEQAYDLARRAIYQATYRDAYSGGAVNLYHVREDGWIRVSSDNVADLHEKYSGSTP

| Ratio IC50 [3] | IC50 [5] | IC50 (HCT-116 [6]) | IC50 [7] | IC50 [8] | IC50 [9] | SMILES | inhibition of growth at 0.2 µM (DOHH-2) | inhibition of growth at 0.2 µM (HCT-116 [1]) | Activity (THP-1 [2]) | inhibition of growth at 0.2 µM (Pfeiffer) | inhibition of growth at 0.2 µM (HT-29) | Activity (THP-1 [4]) | inhibition of growth at 0.2 µM (MCF7) |
| --- | --- | --- | --- | --- | --- | --- | --- | --- | --- | --- | --- | --- | --- |
| 36 | – | – | – | – | – | COc1ccc(C[C@H](NC(=O)[C@H](CCC(=O)NC(C)(C)C)NC(=O)CCNC(=O)CCl)C(=O)NCc2ccc(C)cc2)cc1 | < 20% | 29% | Active | 28% | < 20% | Active | < 20% |
| – | 2.92 nM | 160 nM | > 40000 nM | > 40000 nM | – | Cc1ccc(CNC(=O)[C@H](Cc2ccccc2)NC(=O)[C@H](CCC(=O)NC(C)(C)C)NC(=O)CCNC(=O)/C(C#N)=C/c2ccco2)cc1 | 23% | 76% | – | < 20% | 48% | – | < 20% |
| 124 | – | – | – | – | – | CC(C)(C)NC(=O)CC[C@H](NC(=O)CCNC(=O)/C(C#N)=C/c1ccc(Cl)cc1)C(=O)N[C@@H](Cc1ccccc1)C(=O)NCc1cccc2ccccc12 | 34% | 26% | Active | 32% | < 20% | Active | < 20% |
| 535 | – | – | > 40000 nM | > 40000 nM | – | CC(C)(C)NC(=O)CC[C@H](NC(=O)CCNC(=O)CCl)C(=O)N[C@@H](Cc1ccc2ccccc2c1)C(=O)NCc1cccc2ccccc12 | < 20% | 21% | Active | < 20% | < 20% | Active | 25% |
| – | – | 800 nM | – | – | 84.1 nM | Cc1ccc(CNC(=O)[C@H](Cc2ccc([N+](=O)[O-])cc2)NC(=O)[C@H](CCC(=O)NC(C)(C)C)NC(=O)CCNC(=O)CCl)cc1 | < 20% | 58% | – | < 20% | < 20% | – | < 20% |
| – | – | 1090 nM | – | – | – | Cc1ccc(CNC(=O)[C@H](Cc2ccccc2)NC(=O)[C@H](CCC(=O)NC(C)(C)C)NC(=O)[C@H](CNC(=O)CCl)NS(=O)(=O)c2ccc(C)cc2)cc1 | 34% | 85% | – | 26% | 59% | – | < 20% |
| > 4 | 2760 nM | – | – | – | > 10000 nM | Cc1ccc(CNC(=O)[C@H](Cc2ccccc2)NC(=O)[C@H](CC(N)=O)NC(=O)[C@H](CNC(=O)CCl)NC(=O)CN2CCOCC2)cc1 | – | – | Active | – | – | Active | – |
| – | – | 880 nM | – | – | – | Cc1ccc(CNC(=O)[C@H](Cc2ccccc2)NC(=O)[C@H](CCC(=O)NC(C)(C)C)NC(=O)[C@H](CNC(=O)CCl)NC(=O)CCCc2ccccc2)cc1 | 25% | 82% | – | 23% | 53% | – | < 20% |
| – | – | 460 nM | – | – | – | Cc1ccc(CNC(=O)[C@H](Cc2ccccc2)NC(=O)[C@H](CCC(=O)NC(C)(C)C)NC(=O)[C@H](CNC(=O)CCl)NC(=O)c2cc(C)on2)cc1 | < 20% | 83% | – | 30% | 54% | – | < 20% |
| – | – | 1700 nM | – | – | – | Cc1ccc(CNC(=O)[C@H](Cc2ccc3ccccc3c2)NC(=O)[C@H](CCC(=O)NC(C)(C)C)NC(=O)CCNC(=O)CCl)cc1 | < 20% | 60% | Active | 28% | < 20% | Active | < 20% |
| 113 | 3.82 nM | – | > 40000 nM | > 40000 nM | – | CC(C)(C)NC(=O)CC[C@H](NC(=O)CCNC(=O)CCl)C(=O)N[C@@H](Cc1ccccc1)C(=O)NCc1cccc2ccccc12 | < 20% | 21% | Active | < 20% | < 20% | Active | < 20% |
| – | – | 730 nM | – | – | – | COc1ccc(C[C@H](NC(=O)[C@H](C)NC(=O)CN2CCOCC2)C(=O)NC(Cc2ccccc2)C(=O)[C@@]2(C)CO2)cc1 (stereo partly drawn) | 56% | 75% | Active | 36% | 54% | Active | < 20% |
| 274 | – | – | – | – | – | CCC(=O)NCCC(=O)N[C@@H](CCC(=O)NC(C)(C)C)C(=O)N[C@@H](Cc1ccccc1)C(=O)NCc1cccc2ccccc12 | < 20% | < 20% | Active | < 20% | < 20% | Active | < 20% |
| 222 | – | – | – | – | – | CC(C)(C)NC(=O)CC[C@H](NC(=O)CCNC(=O)/C(C#N)=C/c1ccc(Cl)cc1)C(=O)N[C@@H](Cc1ccc2ccccc2c1)C(=O)NCc1cccc2ccccc12 | < 20% | < 20% | Active | 28% | < 20% | Active | < 20% |
